Laboratory results from publication PMC9851200, “Multiparameter phenotypic screening for endogenous TFEB and TFE3 translocation identifies novel chemical series modulating lysosome function” (Autophagy, 2022).
Where two headings read alike, the source gives them in different places.

How the values were obtained:
endogenous TFEB = test: TFEB nuclear translocation, immunocytochemistry high-content imaging; format: cell-based
endogenous TFE3 = test: TFE3 nuclear translocation, immunocytochemistry high-content imaging; format: cell-based
SH-SY5Y cells [1] = tested on: SH-SY5Y cells; also: reference of the scale not given here
SH-SY5Y cells [2] = test: AK (adenylate kinase) release ToxiLight cytotoxicity assay; conditions: PKIS2 primary screening; also: reference of the scale not given here
SH-SY5Y cells [3] = test: Nuclear count from microscopy images (cellular growth and toxicity); conditions: PKIS2 primary screening; also: reference of the scale not given here
[4] = PKIS2 primary screening, DQ Red BSA intensity
[5] = PKIS2 primary screening, DQ Red BSA spot count

Question: Which TFEB % (endogenous TFEB; PKIS2 primary screening) does the source give for `Cn1cc(-c2ccc3c(c2)CCN3C(=O)Cc2cccc(Cl)c2)c2c(N)ncnc21` [UNC10225039A] here?
Answer: 7.96%

Question: And the TFE3 % (endogenous TFE3; PKIS2 primary screening)?
Answer: 17.54%

Question: And the “DQ Intensity” value (SH-SY5Y cells [1]; PKIS2 primary screening)?
Answer: 87.65

Question: What about the “DQ Spot” value (SH-SY5Y cells [1]; PKIS2 primary screening) of the same compound?
Answer: 95.36

Question: And the AK (SH-SY5Y cells [2])?
Answer: 96.09

Question: What about the “Nuclear Count” value (SH-SY5Y cells [3]) of the same compound?
Answer: 137.18

Question: What does the source list for `CC(C)Nc1cc(-c2ccc3c(N)n[nH]c3c2)nc(N)n1` [GSK2221681]?
Answer: TFEB % (endogenous TFEB; PKIS2 primary screening): 4.14%; TFE3 % (endogenous TFE3; PKIS2 primary screening): 7.71%; DQ Intensity (SH-SY5Y cells [1]; [4]): 78.82; DQ Spot (SH-SY5Y cells [1]; [5]): 81.03; AK (SH-SY5Y cells [2]): 98.58; Nuclear Count (SH-SY5Y cells [3]): 122.37

Question: For `c1ccc(-c2cnc3nccnn23)cc1` [UNC10225020A], which TFEB % (endogenous TFEB; PKIS2 primary screening) is on record?
Answer: 8.54%

Question: What about the TFE3 % (endogenous TFE3; PKIS2 primary screening) of the same compound?
Answer: 11.36%

Question: What about the “DQ Intensity” value (SH-SY5Y cells [1]; PKIS2 primary screening) of the same compound?
Answer: 109.95

Question: What about the “DQ Spot” value (SH-SY5Y cells [1]; PKIS2 primary screening) of the same compound?
Answer: 119.05

Question: And the AK (SH-SY5Y cells [2])?
Answer: 125.59

Question: What about the “Nuclear Count” value (SH-SY5Y cells [3]) of the same compound?
Answer: 110.84

Question: `Cc1ccc(NC(=O)Nc2ccccc2)cc1-c1ccc(C(=O)Nc2ccncc2)cc1` [UNC10224992A] was tested. Which TFEB % (endogenous TFEB; PKIS2 primary screening) did it give?
Answer: 8.91%

Question: And the TFE3 % (endogenous TFE3; PKIS2 primary screening)?
Answer: 19.70%

Question: What about the “DQ Intensity” value (SH-SY5Y cells [1]; PKIS2 primary screening) of the same compound?
Answer: 74.41

Question: What about the “DQ Spot” value (SH-SY5Y cells [1]; PKIS2 primary screening) of the same compound?
Answer: 94.75

Question: And the AK (SH-SY5Y cells [2])?
Answer: 119.72

Question: And the “Nuclear Count” value (SH-SY5Y cells [3])?
Answer: 89.66

Question: Which TFEB % (endogenous TFEB; PKIS2 primary screening) does the source give for `COc1cc2ncn(-c3cc(OCC4CCCCC4)c(C(N)=O)s3)c2cc1OC` [UNC10225496A] here?
Answer: 3.76%

Question: And the TFE3 % (endogenous TFE3; PKIS2 primary screening)?
Answer: 7.72%

Question: What about the “DQ Intensity” value (SH-SY5Y cells [1]; PKIS2 primary screening) of the same compound?
Answer: 104.41

Question: And the “DQ Spot” value (SH-SY5Y cells [1]; PKIS2 primary screening)?
Answer: 104.84

Question: What about the AK (SH-SY5Y cells [2]) of the same compound?
Answer: 73.76

Question: What about the “Nuclear Count” value (SH-SY5Y cells [3]) of the same compound?
Answer: 113.87

Question: Which TFEB % (endogenous TFEB; PKIS2 primary screening) does the source give for `CCn1c(-c2nonc2N)nc2ccccc21` [UNC10112830A] here?
Answer: 9.19%

Question: And the TFE3 % (endogenous TFE3; PKIS2 primary screening)?
Answer: 10.17%

Question: What about the “DQ Intensity” value (SH-SY5Y cells [1]; PKIS2 primary screening) of the same compound?
Answer: 143.39

Question: And the “DQ Spot” value (SH-SY5Y cells [1]; PKIS2 primary screening)?
Answer: 111.62

Question: What about the AK (SH-SY5Y cells [2]) of the same compound?
Answer: 85.29

Question: What about the “Nuclear Count” value (SH-SY5Y cells [3]) of the same compound?
Answer: 114.37

Question: Which results are given for `COc1ccc(CNC(=O)NC2CCN(c3ccnc(Nc4cc(OC)c(OC)c(OC)c4)n3)C2)cc1` (stereo not drawn) [GSK1379748]?
Answer: TFEB % (endogenous TFEB; PKIS2 primary screening): 3.68%; TFE3 % (endogenous TFE3; PKIS2 primary screening): 7.30%; DQ Intensity (SH-SY5Y cells [1]; [4]): 92.45; DQ Spot (SH-SY5Y cells [1]; [5]): 91.07; AK (SH-SY5Y cells [2]): 124.35; Nuclear Count (SH-SY5Y cells [3]): 99.04

Question: Which TFEB % (endogenous TFEB; PKIS2 primary screening) does the source give for `CC(C)(C)OC(=O)NC1CCCN(c2cc(-c3ccc4c(N)n[nH]c4c3)nc(N)n2)C1` (stereo not drawn) [GSK2286096] here?
Answer: 2.89%

Question: What about the TFE3 % (endogenous TFE3; PKIS2 primary screening) of the same compound?
Answer: 7.82%

Question: What about the “DQ Intensity” value (SH-SY5Y cells [1]; [4]) of the same compound?
Answer: 137.35

Question: And the “DQ Spot” value (SH-SY5Y cells [1]; [5])?
Answer: 108.17

Question: What about the AK (SH-SY5Y cells [2]) of the same compound?
Answer: 116.95

Question: And the “Nuclear Count” value (SH-SY5Y cells [3])?
Answer: 128.62

Question: What does the source list for `CN(C)c1cc(-c2ccc3c(N)n[nH]c3c2)nc(N)n1` [GSK2219329]?
Answer: TFEB % (endogenous TFEB; PKIS2 primary screening): 4.04%; TFE3 % (endogenous TFE3; PKIS2 primary screening): 13.03%; DQ Intensity (SH-SY5Y cells [1]; [4]): 87.81; DQ Spot (SH-SY5Y cells [1]; [5]): 98.17; AK (SH-SY5Y cells [2]): 83.85; Nuclear Count (SH-SY5Y cells [3]): 85.79

Question: Which results are given for `NS(=O)(=O)c1cccc(-c2ccc3nccc(-c4cccc(S(N)(=O)=O)c4)c3c2)c1` [UNC10225379A]?
Answer: TFEB % (endogenous TFEB; PKIS2 primary screening): 4.73%; TFE3 % (endogenous TFE3; PKIS2 primary screening): 17.04%; DQ Intensity (SH-SY5Y cells [1]; [4]): 88.37; DQ Spot (SH-SY5Y cells [1]; [5]): 88.03; AK (SH-SY5Y cells [2]): 131.37; Nuclear Count (SH-SY5Y cells [3]): 79.09

Question: What does the source list for `NC(=O)Nc1sc(-c2ccc(F)cc2)cc1C(N)=O` [UNC10225118A]?
Answer: TFEB % (endogenous TFEB; PKIS2 primary screening): 7.01%; TFE3 % (endogenous TFE3; PKIS2 primary screening): 11.46%; DQ Intensity (SH-SY5Y cells [1]; PKIS2 primary screening): 77.43; DQ Spot (SH-SY5Y cells [1]; PKIS2 primary screening): 92.26; AK (SH-SY5Y cells [2]): 76.60; Nuclear Count (SH-SY5Y cells [3]): 81.29

Question: How did the TFEB % (endogenous TFEB; PKIS2 primary screening) turn out when `CN1CCN(CCNc2nc3ccc(Oc4ccc(NC(=O)Nc5cc(C(F)(F)F)ccc5F)cc4)cc3[nH]2)CC1` [GW768504] was run?
Answer: 4.72%

Question: And the TFE3 % (endogenous TFE3; PKIS2 primary screening)?
Answer: 12.94%

Question: And the “DQ Intensity” value (SH-SY5Y cells [1]; [4])?
Answer: 103.13

Question: What about the “DQ Spot” value (SH-SY5Y cells [1]; [5]) of the same compound?
Answer: 113.95

Question: What about the AK (SH-SY5Y cells [2]) of the same compound?
Answer: 155.92

Question: What about the “Nuclear Count” value (SH-SY5Y cells [3]) of the same compound?
Answer: 72.38

Question: With `OCCCNc1nccc(-c2c(-c3cccc(C(F)(F)F)c3)nn3cc(C(F)(F)F)ccc23)n1` [UNC10225352A] as the compound, how does the TFEB % (endogenous TFEB; PKIS2 primary screening) read?
Answer: 4.95%

Question: And the TFE3 % (endogenous TFE3; PKIS2 primary screening)?
Answer: 11.93%

Question: And the “DQ Intensity” value (SH-SY5Y cells [1]; PKIS2 primary screening)?
Answer: 93.14

Question: And the “DQ Spot” value (SH-SY5Y cells [1]; PKIS2 primary screening)?
Answer: 97.34

Question: What about the AK (SH-SY5Y cells [2]) of the same compound?
Answer: 111.75

Question: What about the “Nuclear Count” value (SH-SY5Y cells [3]) of the same compound?
Answer: 112.73

Question: With `Cc1nn2c(=O)cc(N3CCO[C@H](C)C3)nc2n1Cc1cccc(Cl)c1Cl` [UNC10225190A] as the compound, how does the TFEB % (endogenous TFEB; PKIS2 primary screening) read?
Answer: 6.05%

Question: And the TFE3 % (endogenous TFE3; PKIS2 primary screening)?
Answer: 6.51%

Question: What about the “DQ Intensity” value (SH-SY5Y cells [1]; PKIS2 primary screening) of the same compound?
Answer: 96.99

Question: And the “DQ Spot” value (SH-SY5Y cells [1]; PKIS2 primary screening)?
Answer: 93.26

Question: And the AK (SH-SY5Y cells [2])?
Answer: 79.35

Question: And the “Nuclear Count” value (SH-SY5Y cells [3])?
Answer: 111.47

Question: What does the source list for `Nc1nc(-c2ccccc2F)c(-c2ccnc3ccccc23)s1` [UNC10225301A]?
Answer: TFEB % (endogenous TFEB; PKIS2 primary screening): 2.45%; TFE3 % (endogenous TFE3; PKIS2 primary screening): 14.12%; DQ Intensity (SH-SY5Y cells [1]; [4]): 64.84; DQ Spot (SH-SY5Y cells [1]; [5]): 87.10; AK (SH-SY5Y cells [2]): 75.40; Nuclear Count (SH-SY5Y cells [3]): 129.96

Question: Which TFEB % (endogenous TFEB; PKIS2 primary screening) does the source give for `O=c1cc(N2CCOCC2)nc2n(Cc3cccc(F)c3)ccn12` [UNC10225332A] here?
Answer: 6.97%

Question: What about the TFE3 % (endogenous TFE3; PKIS2 primary screening) of the same compound?
Answer: 15.66%

Question: What about the “DQ Intensity” value (SH-SY5Y cells [1]; PKIS2 primary screening) of the same compound?
Answer: 100.57

Question: And the “DQ Spot” value (SH-SY5Y cells [1]; PKIS2 primary screening)?
Answer: 98.19

Question: What about the AK (SH-SY5Y cells [2]) of the same compound?
Answer: 128.93

Question: And the “Nuclear Count” value (SH-SY5Y cells [3])?
Answer: 95.52

Question: Which results are given for `COc1ccc(Nc2nccc(N3CCC(NC(=O)C(C)c4ccc(Cl)cc4)C3)n2)cc1` (stereo not drawn) [GSK1379735]?
Answer: TFEB % (endogenous TFEB; PKIS2 primary screening): 5.13%; TFE3 % (endogenous TFE3; PKIS2 primary screening): 11.71%; DQ Intensity (SH-SY5Y cells [1]; [4]): 99.92; DQ Spot (SH-SY5Y cells [1]; [5]): 94.04; AK (SH-SY5Y cells [2]): 70.53; Nuclear Count (SH-SY5Y cells [3]): 119.80

Question: With `c1ccc(-c2n[nH]cc2-c2ccnc3ccccc23)nc1` [UNC10225289A] as the compound, how does the TFEB % (endogenous TFEB) read?
Answer: 2.12%

Question: And the TFE3 % (endogenous TFE3)?
Answer: 7.71%

Question: What about the “DQ Intensity” value (SH-SY5Y cells [1]) of the same compound?
Answer: 80.70

Question: What about the “DQ Spot” value (SH-SY5Y cells [1]) of the same compound?
Answer: 82.58

Question: What about the AK (SH-SY5Y cells [2]) of the same compound?
Answer: 102.26

Question: And the “Nuclear Count” value (SH-SY5Y cells [3])?
Answer: 134.93
